Reference: patent publication US20220304952A1, “COMPOSITION COMPRISING METFORMIN HCI, VITAMIN B12 AND AT LEAST ONE FLOW ADDITIVE” (DSM IP ASSETS B.V., priority 2019, published 2022)
Structures can show the parent of a compound that is named as a salt.

Columns and labels:
[1] = Powder flowability: mass flow rate through an orifice (Pharmatest PTG-S4); type: physicochemical; conditions: orifice inner diameter 15 mm; 100 g powder
Method: The powder flowability was determined with a Pharmatest PTG-S4 automated powder characterization instrument (Pharma Test Apparatebau AG, Hainburg, Germany). This system measures the flow behavior of granules and powders in compliance with the current EP <2.9.36/17> and USP <1174> pharmacopoeia as well as with the international ISO 4324 standards.
Mass flow rate (g/min) was determined via the method of flow through an orifice. Flow rate is interpreted as the time needed for a specified amount of powder (100 g) to flow through an orifice with different diameters. A free-flowing powder should be able to flow through the whole set of diameters 5, 7, 9, 10, and 15 mm. The plot of flow rate vs. orifice diameter is referred as flow curve. Three parallel measurements were performed to determine the flow rate.
Flowability of the two mixtures was then tested as described in Example 1.

[2] = Vitamin B12 content uniformity (RSD from HPLC assays); type: physicochemical; conditions: tablets with 549.9 mg calcium phosphate anhydrous and 0.0078 mg vitamin B12
Method: “Uniformity of content” ensures that a consistent dose of an active pharmaceutical ingredient (e.g. of vitamin B12) is maintained in each portion of a composition, even if the composition is subdivided into a large number of very small portions. By way of example, when controlling the quality of e.g. capsules or tablets, uniformity of content is determined. To do so, multiple e.g. capsules or tablets are selected at random and a suitable analytical method is applied to assay the individual content of the active pharmaceutical ingredient in each capsule or tablet. The relative standard deviation (RSD) can then be calculated. The lower the RSD, the better the uniformity of content. An RSD of more than […] is clearly unacceptable. The term “uniformity of vitamin B12 content” is used when multiple solid pharmaceutical dosage forms are selected at random and a suitable analytical method is applied to assay the individual content of vitamin B12 in each solid pharmaceutical dosage form.
Tablets were compressed with a Korsch XL 100 rotary tableting machine (Korsch A G, Berlin, Germany) using an oblong punch of 22×9 mm and compression force of 20 kN.
Vitamin B12 content uniformity was then evaluated via the standard deviation RSD (%) calculated from 10 individual assay determinations (HPLC analysis conducted by Eurofins®, Germany).

Row | Flow rate, measured with orifice having the indicated inner diameter [1] | vitamin B12 content uniformity rating [2] | Molecule
1 | very low | – | CN(C)C(=N)N=C(N)N [metformin HCl]
2 | – | extremely poor | cyanocobalamin [vitamin B12 crystals]
